The text below walks through data of patent US12447186B2, “Traditional Chinese medicine compound composition with anti-anxiety effect and preparation method and applications thereof” (Chenland Nutritionals Inc., priority 2020, dated 2025).

Assay [1] concerns mice. Description: Open field test. Particulars: 6 min, Diazepam 2 mg/kg. The assay is classed as in vivo. How it is done: (§1) After the mice arrived, they were acclimatized for a week to enter the experiment. There were 12 mice in each group.
(§2) The normal group mice were gavaged with the same volume of purified water, and the gavage doses of other groups were illustrated in the results table section below. The mice were gavaged every morning at fixed time (9:00) with a gavage volume of 0.1 ml·10 g^−1. the administration lasted for one month, and behavioral assays were performed 1 h after the last gavage.
The test was performed inside an open field box with 50 cm long, 50 cm wide, and 50 cm deep. The bottom of the open field box was equally divided into nine squares, with the right middle area being the central area and the remaining area being the peripheral area. The bottom and surrounding of the open field box were all white. The test was performed in a quiet weak red light environment. At the beginning, the mice were placed in the center of the open field box, and the activity within 6 minutes was observed. Total running distance, running distance in central area and number of entries into central area of the mice were recorded.

Assay [2] has as its system mice. The experiment in a line: Light-dark box test. The assay is classed as in vivo. Conditions: gavage one month, 5 min, Diazepam 2 mg/kg. How it is done: as §1, §2
The light and dark box is composed of an integral box which is divided into two compartments (light area and dark area) of the same size (L×w×H=25 cm×25 cm×30 cm) by a middle gate (6.5 cm×6.5 cm). The light area is illuminated by white light, and the dark area is illuminated by red light. At the beginning of the test, each mouse was placed in the center of the light area facing the partition wall, and the middle gate was removed. Once four claws of one mouse entered the compartment, it was recorded as one entry. Supermaze software was used to record the distance in light area, retention time in light area and number of entries into light area in 5 minutes.

The molecule `CN1C(=O)CN=C(c2ccccc2)c2cc(Cl)ccc21` [Diazepam] gave a Total running distance in the assay on mice [1] (gavage daily for one month, 1 h after last gavage) of 29927 ± 2380. Further, in the assay with mice [1] (gavage one month), the “Number of entries into central area” value came out at 12.78 ± 1.498 and the “Running distance in central area” value was determined as 2168 ± 218.6. Moreover, in the assay with mice [2], the “Distance in light area” value is on record as 18141 ± 1011 and the “Number of entries into light area” value is reported as 18.92 ± 1.540.
